SMILES strings stand for the structures.

This assay deals with T1, human TLR8 (Homo sapiens, UniProt Q9NR97).
T1 sequence (Q9NR97 27-1041): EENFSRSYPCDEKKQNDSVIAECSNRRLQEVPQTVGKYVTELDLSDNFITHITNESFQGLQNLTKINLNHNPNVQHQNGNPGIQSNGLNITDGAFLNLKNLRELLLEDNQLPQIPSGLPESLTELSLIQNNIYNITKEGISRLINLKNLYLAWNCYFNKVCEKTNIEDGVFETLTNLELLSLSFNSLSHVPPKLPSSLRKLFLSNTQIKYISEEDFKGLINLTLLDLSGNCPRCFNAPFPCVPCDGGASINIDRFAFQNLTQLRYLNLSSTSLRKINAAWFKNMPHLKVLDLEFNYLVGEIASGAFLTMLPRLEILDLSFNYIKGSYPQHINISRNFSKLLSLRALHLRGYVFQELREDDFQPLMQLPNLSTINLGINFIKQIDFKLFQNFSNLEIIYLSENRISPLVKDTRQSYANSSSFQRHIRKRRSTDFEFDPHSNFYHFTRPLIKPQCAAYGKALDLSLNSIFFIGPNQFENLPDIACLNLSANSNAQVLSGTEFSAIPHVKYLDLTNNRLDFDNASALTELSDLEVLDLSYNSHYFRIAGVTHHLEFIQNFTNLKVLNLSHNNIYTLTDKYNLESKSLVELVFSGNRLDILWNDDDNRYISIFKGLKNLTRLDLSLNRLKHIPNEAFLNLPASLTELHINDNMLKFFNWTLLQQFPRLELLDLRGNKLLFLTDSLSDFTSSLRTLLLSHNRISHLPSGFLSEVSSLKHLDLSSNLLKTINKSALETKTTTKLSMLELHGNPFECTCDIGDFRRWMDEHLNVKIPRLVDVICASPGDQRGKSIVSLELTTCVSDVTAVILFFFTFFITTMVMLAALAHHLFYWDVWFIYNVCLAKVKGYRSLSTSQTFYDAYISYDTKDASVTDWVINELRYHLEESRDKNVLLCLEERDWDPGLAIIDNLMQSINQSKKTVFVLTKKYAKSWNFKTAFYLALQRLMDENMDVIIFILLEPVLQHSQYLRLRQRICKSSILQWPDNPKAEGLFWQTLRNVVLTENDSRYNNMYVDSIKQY
Nature of the assay: HEK293-Blue-hTLR-8 cells assay (SEAP reporter, R848 stimulation). Type of assay: cell-based. The conditions noted are these: HEK293-Blue-hTLR-8 cells, R848 ligand, 20 hrs incubation; read-out: TLR8 IC50. The protocol:
The following tests were carried out in order to determine the activity of the compounds of formula (I) in HEK293-Blue-hTLR-7/8/9 cells assay.
HEK293-Blue-hTLR-8 Cells Assay:
A stable HEK293-Blue-hTLR-8 cell line was purchased from InvivoGen (Cat. #: hkb-htlr8, San Diego, California, USA). These cells were originally designed for studying the stimulation of human TLR8 by monitoring the activation of NF-κB. A SEAP (secreted embryonic alkaline phosphatase) reporter gene was placed under the control of the IFN-β minimal promoter fused to five NF-κB and AP-1-binding sites. The SEAP was induced by activating NF-κB and AP-1 via stimulating HEK-Blue hTLR8 cells with TLR8 ligands. Therefore the reporter expression was declined by TLR8 antagonist under the stimulation of a ligand, such as R848, for incubation of 20 hrs. The cell culture supernatant SEAP reporter activity was determined using QUANTI-Blue™ kit (Cat. #: rep-qb1, Invivogen, San Diego, Ca, USA) at a wavelength of 640 nm, a detection medium that turns purple or blue in the presence of alkaline phosphatase.
HEK293-Blue-hTLR8 cells were incubated at a density of 250,000˜450,000 cells/mL in a volume of 170 μL in a 96-well plate in Dulbecco's Modified Eagle's medium (DMEM) containing 4.5 g/L glucose, 50 U/mL penicillin, […], […], 2 mM L-glutamine, 10% (v/v) heat-inactivated fetal bovine serum with addition of 20 μL test compound in a serial dilution in the presence of final DMSO at 1% and 10 μL of 60 uM R848 in above DMEM, perform incubation under 37° C. in a CO2 incubator for 20 hrs. Then 20 μL of the supernatant from each well was incubated with 180 μL Quanti-blue substrate solution at 37° C. for 2 hrs and the absorbance was read at 620˜655 nm using a spectrophotometer. The signalling pathway that TLR8 activation leads to downstream NF-κB activation has been widely accepted, and therefore similar reporter assay was modified for evaluating TLR8 antagonist.
Broadly, the IC50 is the concentration at which inhibition is half-maximal. As for `C[C@@H]1CN(c2ccc(C#N)n3nccc23)C[C@H](C(=O)NC2CCN(C)CC2)O1` [Example 1, (2R,6R)-4-(7-cyanopyrazolo[1,5-a]pyridin-4-yl)-6-methyl-N-(1-methyl-4-piperidyl)morpholine-2-carboxamide], the IC50 was 7 nM. To `C[C@@H]1CN(c2ccc(C#N)n3nccc23)C[C@H](C(=O)N[C@H]2CNC[C@H]2F)O1` [Example 2, (2R,6R)-4-(7-cyanopyrazolo[1,5-a]pyridin-4-yl)-N-[(3S,4R)-4-fluoropyrrolidin-3-yl]-6-methyl-morpholine-2-carboxamide] belongs 160 nM; to `C[C@@H]1CN(c2ccc(C#N)n3nccc23)C[C@H](C(=O)NC2CC3(CNC3)C2)O1` [Example 3, (2R,6R)-N-(2-azaspiro[3.3]heptan-6-yl)-4-(7-cyanopyrazolo[1,5-a]pyridin-4-yl)-6-methyl-morpholine-2-carboxamide], 95 nM. Then `C[C@@H]1CN(c2ccc(C#N)n3nccc23)C[C@H](C(=O)NC2CCOCC2)O1` [Example 4, (2R,6R)-4-(7-cyanopyrazolo[1,5-a]pyridin-4-yl)-6-methyl-N-tetrahydropyran-4-yl-morpholine-2-carboxamide], with 910 nM; and `C[C@@H]1CN(c2ccc(C#N)n3nccc23)C[C@H](C(=O)NC2CNC[C@H]2F)O1` (stereo partly drawn) [Example 5, Cis-(2R,6R)-4-(7-cyanopyrazolo[1,5-a]pyridin-4-yl)-6-methyl-N-(4-fluoropyrrolidin-3-yl) morpholine-2-carboxamide], with 47 nM; and `C[C@@H]1CN(c2ccc(C#N)n3nccc23)C[C@H](C(=O)NC2CCCNCC2)O1` (stereo partly drawn) [Example 6, (2R,6R)-N-(azepan-4-yl)-4-(7-cyanopyrazolo[1,5-a]pyridin-4-yl)-6-methyl-morpholine-2-carboxamide], with 11 nM. With `C[C@@H]1CN(c2ccc(C#N)n3nccc23)C[C@H](C(=O)NCC2CN(C)CCO2)O1` (stereo partly drawn) [Example 7, (2R,6R)-4-(7-cyanopyrazolo[1,5-a]pyridin-4-yl)-6-methyl-N-[(4-methylmorpholin-2-yl)methyl]morpholine-2-carboxamide], the IC50 is 50 nM. For the compound `C[C@@H]1CN(c2ccc(C#N)n3nccc23)C[C@H](C(=O)N2CC(N)C2)O1` [Example 8, 4-[(2R,6R)-2-(3-aminoazetidine-1-carbonyl)-6-methyl-morpholin-4-yl]pyrazolo[1,5a]pyridine-7-carbonitrile], the IC50 was 520 nM. For `COCCNC(=O)[C@H]1CN(c2ccc(C#N)n3nccc23)C[C@@H](C)O1` [Example 9, (2R,6R)-4-(7-cyanopyrazolo[1,5-a]pyridin-4-yl)-N-(2-methoxyethyl)-6-methyl-morpholine-2-carboxamide], the IC50 is 860 nM. To `C[C@@H]1CN(c2ccc(C#N)n3nccc23)C[C@H](C(=O)NC23CC4CC(CC(C4)C2)C3)O1` [Example 12, (2R,6R)-N-(1-adamantyl)-4-(7-cyanopyrazolo[1,5-a]pyridin-4-yl)-6-methyl-morpholine-2-carboxamide] belongs 320 nM; to `CCC(O)CNC(=O)[C@H]1CN(c2ccc(C#N)n3nccc23)C[C@@H](C)O1` (stereo partly drawn) [Example 13, (2R,6R)-4-(7-cyanopyrazolo[1,5-a]pyridin-4-yl)-N-(2-hydroxybutyl)-6-methyl-morpholine-2-carboxamide], 570 nM; to `C[C@@H]1CN(c2ccc(C#N)n3nccc23)C[C@H](C(=O)NC2CC3CCCC(C2)N3)O1` (stereo partly drawn) [Example 14, (2R,6R)-N-(9-azabicyclo[3.3.1]nonan-3-yl)-4-(7-cyanopyrazolo[1,5-a]pyridin-4-yl)-6-methyl-morpholine-2-carboxamide], 30 nM. Consider `C[C@@H]1CN(c2ccc(C#N)n3nccc23)C[C@H](C(=O)NC23CC(CO)(C2)C3)O1` [Example 15, (2R,6R)-4-(7-cyanopyrazolo[1,5-a]pyridin-4-yl)-N-[3-(hydroxymethyl)-1-bicyclo[1.1.1]pentanyl]-6-methyl-morpholine-2-carboxamide], for which the IC50 came to 710 nM. Then `C[C@@H]1CN(c2ccc(C#N)n3nccc23)C[C@H](C(=O)NC(C)(C)CO)O1` [Example 16, (2R,6R)-4-(7-cyanopyrazolo[1,5-a]pyridin-4-yl)-N-(2-hydroxy-1,1-dimethyl-ethyl)-6-methyl-morpholine-2-carboxamide], with 210 nM; and `CCC(C)(C)NC(=O)[C@H]1CN(c2ccc(C#N)n3nccc23)C[C@@H](C)O1` [Example 17, (2R,6R)-4-(7-cyanopyrazolo[1,5-a]pyridin-4-yl)-N-(1,1-dimethylpropyl)-6-methyl-morpholine-2-carboxamide], with 100 nM.

Take `C[C@@H]1CN(c2ccc(C#N)n3nccc23)C[C@H](C(=O)NCC2CNCC2(F)F)O1` (stereo partly drawn) [Example 18, (2R,6R)-4-(7-cyanopyrazolo[1,5-a]pyridin-4-yl)-N-[(4,4-difluoropyrrolidin-3-yl)methyl]-6-methyl-morpholine-2-carboxamide]: the IC50 is 100 nM. To `C[C@@H]1CN(c2ccc(C#N)n3nccc23)C[C@H](C(=O)NC2(C)CCNCC2)O1` [Example 19, (2R,6R)-4-(7-cyanopyrazolo[1,5-a]pyridin-4-yl)-6-methyl-N-(4-methyl-4-piperidyl)morpholine-2-carboxamide] belongs 27 nM.

As to `C[C@@H]1CN(c2ccc(C#N)n3nccc23)C[C@H](C(=O)N[C@H]2CC[C@@H](O)CC2)O1` [Example 20, Cis-(2R,6R)-4-(7-cyanopyrazolo[1,5-a]pyridin-4-yl)-N-(4-hydroxycyclohexyl)-6-methyl-morpholine-2-carboxamide], the concentration for half-maximal inhibition (IC50) was determined as 190 nM.

`C[C@@H]1CN(c2ccc(C#N)n3nccc23)C[C@H](C(=O)N[C@H]2CC[C@H](O)CC2)O1` [Example 21, Trans-(2R,6R)-4-(7-cyanopyrazolo[1,5-a]pyridin-4-yl)-N-(4-hydroxycyclohexyl)-6-methyl-morpholine-2-carboxamide]: the IC50 is 570 nM. To `C[C@@H]1CN(c2ccc(C#N)n3nccc23)C[C@H](C(=O)NC2CC3COCC(C2)N3)O1` (stereo partly drawn) [Example 22, Endo-(2R,6R)-4-(7-cyanopyrazolo[1,5-a]pyridin-4-yl)-6-methyl-N-[3-oxa-9-azabicyclo[3.3.1]nonan-7-yl]morpholine-2-carboxamide] belongs 25 nM.

As to `C[C@@H]1CN(c2ccc(C#N)n3nccc23)C[C@H](C(=O)NC2CC3CCC(C2)N3)O1` (stereo partly drawn) [Example 23, Exo-(2R,6R)-N-[8-azabicyclo[3.2.1]octan-3-yl]-4-(7-cyanopyrazolo[1,5-a]pyridin-4-yl)-6-methyl-morpholine-2-carboxamide], the half-inhibitory concentration (IC50) was 74 nM.

As to `C[C@@H]1CN(c2ccc(C#N)n3nccc23)C[C@H](C(=O)NC2CCNCC2)O1` [Example 24, (2R,6R)-4-(7-cyanopyrazolo[1,5-a]pyridin-4-yl)-6-methyl-N-(4-piperidyl)morpholine-2-carboxamide], the half-inhibitory concentration (IC50) came out at 37 nM. Then `C[C@@H]1CN(c2ccc(C#N)n3nccc23)C[C@H](C(=O)NC2CCNC2)O1` (stereo partly drawn) [Example 25, (2R,6R)-4-(7-cyanopyrazolo[1,5-a]pyridin-4-yl)-6-methyl-N-pyrrolidin-3-yl-morpholine-2-carboxamide], with 610 nM.
